What all share (assay type): protein-complex assay
Data set [1] deals with CC(C)=CCC/C(C)=C/CC/C(C)=C/COP(=O)(O)CP(=O)(O)O. As to the kind of experiment: (§1) Michaelis-Menten constant against Farnesyltransferase.
Data set [2] has as its system CC(C)=CCC/C(C)=C/CC/C(C)=C/COP(=O)(O)OP(=O)(O)O. The data set is described as §1.
Data set [3] deals with T1, Protein farnesyltransferase (Homo sapiens) (UniProt P49354+P49356). As to the kind of experiment: Ratio of Kcat to Km for farnesyltransferase.
Data set [4] deals with T1, Protein farnesyltransferase (Homo sapiens). The experiment in a line: Catalytic constant against Farnesyltransferase.

As usually defined, the Km is the substrate concentration at which the rate is half of its maximum. For the compound “Protein farnesyltransferase (Homo sapiens) (from UniProt P49354+P49356)”, the Km in data set [1] stood at 0.18 µM; in data set [2] it was 0.04 µM.

As to `CC(C)=CCC/C(C)=C/CC/C(C)=C/COP(=O)(O)OP(=O)(O)O`, in data set [3], the Ratio worked out at 2e+06 M⁻¹ s⁻¹. For the same compound, the K cat in data set [4] came to 0.09 s⁻¹.

In the case of `CC(C)=CCC/C(C)=C/CC/C(C)=C/COP(=O)(O)CP(=O)(O)O`, in data set [3], the Ratio turned out to be 300000 M⁻¹ s⁻¹. The same compound gave a K cat in data set [4] of 0.06 s⁻¹.

The values above are taken from ChEMBL document CHEMBL1137881, “Synthesis of acyloxymethyl ester prodrugs of the transferable protein farnesyl transferase substrate farnesyl methylenediphosphonate” (Bioorg Med Chem Lett, 2004).
